Measured values published in PubChem BioAssay AID330 (DTP/NCI, 2004).
Several values for one entry are separate records, joined by “and”; a condition that tells them apart may be missing. Equal values may be shown once. Toxic doses and inconclusive results are not listed. How the source made its calls: active means survival T/C of 150% or more; inactive means T/C below 125% in these data.

Tested on: P388 leukemia ip, CD2F1 mice, survival T/C
Test: NCI In Vivo Anticancer Drug Screen. Data for tumor model P388 Leukemia (intraperitoneal) in CD2F1 (CDF1) mice
Conditions: endpoint: median survival time, higher = longer survival
Outline: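 Mice carrying the transplanted tumor received test compound or vehicle. Survival was recorded in each group, and the value is the treated-group measurement divided by that of the vehicle-treated control group.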

[1] = dose: 60.0 mg/kg/injection, schedule: Q01DX005 (ip), vehicle: Klucel (hydroxypropylcellulose) (HPC)
[2] = dose: 120.0 mg/kg/injection, schedule: Q01DX005 (ip), vehicle: Klucel (hydroxypropylcellulose) (HPC)
[3] = dose: 240.0 mg/kg/injection, schedule: Q01DX005 (ip), vehicle: Klucel (hydroxypropylcellulose) (HPC)
[4] = dose: 50.0 mg/kg/injection, schedule: Q01DX009 (ip), vehicle: saline with Tween-80
[5] = dose: 100.0 mg/kg/injection, schedule: Q01DX009 (ip), vehicle: saline with Tween-80
[6] = dose: 200.0 mg/kg/injection, schedule: Q01DX009 (ip), vehicle: saline with Tween-80
[7] = dose: 60.0 mg/kg/injection, schedule: Q01DX005 (ip), vehicle: saline with Tween-80
[8] = dose: 120.0 mg/kg/injection, schedule: Q01DX005 (ip), vehicle: saline with Tween-80
[9] = dose: 240.0 mg/kg/injection, schedule: Q01DX005 (ip), vehicle: saline with Tween-80
[10] = dose: 100.0 mg/kg/injection, schedule: Q01DX001 (ip), vehicle: saline with Tween-80
[11] = dose: 200.0 mg/kg/injection, schedule: Q01DX001 (ip), vehicle: saline with Tween-80
[12] = dose: 400.0 mg/kg/injection, schedule: Q01DX001 (ip), vehicle: saline with Tween-80
[13] = dose: 25.0 mg/kg/injection, schedule: Q01DX009 (ip), vehicle: saline with Tween-80
[14] = dose: 100.0 mg/kg/injection, schedule: Q01DX009 (ip), vehicle: Klucel (hydroxypropylcellulose) (HPC)
[15] = dose: 12.5 mg/kg/injection, schedule: Q01DX009 (ip), vehicle: saline with Tween-80

Measured: T/C

CN(Cc1ccc([N+](=O)[O-])cc1)C(=O)Nc1ccc(S(=O)(=O)F)cc1
inactive: [1] 110 % of control | [2] 92 % of control | [3] 92 % of control

CCCNC(=O)/C(C)=C(\C)c1ccccc1
inactive: dose: 50.0 mg/kg/injection, schedule: Q04DX003 (ip), vehicle: Klucel (hydroxypropylcellulose) (HPC) 100 % of control | dose: 100.0 mg/kg/injection, schedule: Q04DX003 (ip), vehicle: Klucel (hydroxypropylcellulose) (HPC) 99 % of control | dose: 200.0 mg/kg/injection, schedule: Q04DX003 (ip), vehicle: Klucel (hydroxypropylcellulose) (HPC) 100 % of control

Cc1c(-c2ccccc2)n(O)c(-c2ccc(N(C)C)cc2)[n+]1[O-]
inactive: [4] 98 % of control | [5] 92 % of control | [6] 91 % of control

CS(=O)(=O)N(CC(=O)O)Cc1ccc(Cl)c(Cl)c1
inactive: dose: 25.0 mg/kg/injection, schedule: Q04DX003 (ip), vehicle: Klucel + Tween-80 92 % of control | dose: 50.0 mg/kg/injection, schedule: Q04DX003 (ip), vehicle: Klucel + Tween-80 100 % of control | dose: 100.0 mg/kg/injection, schedule: Q04DX003 (ip), vehicle: Klucel + Tween-80 98 % of control | dose: 200.0 mg/kg/injection, schedule: Q04DX003 (ip), vehicle: Klucel + Tween-80 91 % of control

CC(N)C(=O)Nc1ccc(C(=O)O)c(O)c1 (stereo unspecified)
inactive: [7] 100 % of control | [8] 102 % of control | [9] 93 % of control

CN1CNC(=O)NC1
inactive: dose: 50.0 mg/kg/injection, schedule: Q01DX009 (ip), vehicle: saline 107 % of control | dose: 100.0 mg/kg/injection, schedule: Q01DX009 (ip), vehicle: saline 100 % of control and 106 % of control | dose: 200.0 mg/kg/injection, schedule: Q01DX009 (ip), vehicle: saline 99 % of control and 101 % of control

CN(C)c1ccc(/C=C/c2ccnc3c2ccc2ccccc23)cc1
inactive: dose: 37.5 mg/kg/injection, schedule: Q04DX003 (ip), vehicle: Klucel (hydroxypropylcellulose) (HPC) 108 % of control | dose: 50.0 mg/kg/injection, schedule: Q01DX001 (ip), vehicle: saline with Tween-80 106 % of control | dose: 75.0 mg/kg/injection, schedule: Q04DX003 (ip), vehicle: Klucel (hydroxypropylcellulose) (HPC) 89 % of control | [10] 93 % of control | dose: 150.0 mg/kg/injection, schedule: Q04DX003 (ip), vehicle: Klucel (hydroxypropylcellulose) (HPC) 103 % of control | [11] 91 % of control | dose: 300.0 mg/kg/injection, schedule: Q04DX003 (ip), vehicle: Klucel (hydroxypropylcellulose) (HPC) 96 % of control | [12] 91 % of control

OCc1ccc(CO)cc1
inactive: dose: 100.0 mg/kg/injection, schedule: Q04DX003 (ip), vehicle: saline sonified 104 % of control | dose: 200.0 mg/kg/injection, schedule: Q04DX003 (ip), vehicle: saline sonified 100 % of control | dose: 400.0 mg/kg/injection, schedule: Q04DX003 (ip), vehicle: saline sonified 100 % of control

Cc1ccc(S(=O)(=O)N/N=C/c2ccccc2Cl)cc1
inactive: dose: 6.25 mg/kg/injection, schedule: Q01DX009 (ip), vehicle: Klucel (hydroxypropylcellulose) (HPC) 94 % of control | dose: 12.5 mg/kg/injection, schedule: Q01DX009 (ip), vehicle: Klucel (hydroxypropylcellulose) (HPC) 98 % of control | dose: 25.0 mg/kg/injection, schedule: Q01DX009 (ip), vehicle: Klucel (hydroxypropylcellulose) (HPC) 106 % of control | [13] 106 % of control | dose: 50.0 mg/kg/injection, schedule: Q01DX009 (ip), vehicle: Klucel (hydroxypropylcellulose) (HPC) 104 % of control | [4] 104 % of control | [14] 106 % of control | [5] 106 % of control | [6] 100 % of control

Cc1ccc(NC(=O)C2C(=O)N(c3ccc(C)c(C)c3)C(=O)C2N=N)cc1C (stereo unspecified)
inactive: [10] 100 % of control | [11] 101 % of control | [12] 91 % of control

CC(=O)c1cnn(C(N)=O)c1C
inactive: dose: 15.0 mg/kg/injection, schedule: Q01DX005 (ip), vehicle: Klucel (hydroxypropylcellulose) (HPC) 95 % of control and 96 % of control | dose: 30.0 mg/kg/injection, schedule: Q01DX005 (ip), vehicle: Klucel (hydroxypropylcellulose) (HPC) 100 % of control and 102 % of control | [1] 101 % of control and 97 % of control | [2] 105 % of control and 96 % of control and 98 % of control | [3] 107 % of control

COC1=C(OC)C(=O)C(OC)=C(OC)C1=O
inactive: [15] 106 % of control | [13] 98 % of control | [4] 104 % of control

NC(=Nc1ccc(Cl)cc1)N/N=C/c1ccc(Cl)c(Cl)c1
inactive: dose: 25.0 mg/kg/injection, schedule: Q04DX002 (ip), vehicle: saline with Tween-80 103 % of control | dose: 40.0 mg/kg/injection, schedule: Q04DX002 (ip), vehicle: saline with Tween-80 100 % of control | dose: 100.0 mg/kg/injection, schedule: Q04DX002 (ip), vehicle: saline with Tween-80 106 % of control | dose: 200.0 mg/kg/injection, schedule: Q04DX002 (ip), vehicle: saline with Tween-80 107 % of control | dose: 400.0 mg/kg/injection, schedule: Q04DX002 (ip), vehicle: saline with Tween-80 113 % of control

C=CC1(C)CCOC(=O)C1 (stereo unspecified)
inactive: [7] 94 % of control | [8] 97 % of control

C/C(=C1/SC(=S)NC1=O)c1ccc(Cl)c(O)c1
inactive: [7] 99 % of control | [8] 97 % of control | [9] 88 % of control

COc1ccc(-c2cc3cc(OC)c(OC)cc3c(-c3ccccc3)n2)cc1OC
inactive: [7] 98 % of control | [8] 95 % of control | [9] 90 % of control

CCOC(=O)c1ccc(NC(=O)Oc2cc(C)ccc2C)cc1
inactive: dose: 3.75 mg/kg/injection, schedule: Q01DX005 (ip), vehicle: saline with Tween-80 93 % of control | dose: 7.5 mg/kg/injection, schedule: Q01DX005 (ip), vehicle: saline with Tween-80 90 % of control | dose: 15.0 mg/kg/injection, schedule: Q01DX005 (ip), vehicle: saline with Tween-80 90 % of control and 94 % of control | [7] 94 % of control

NC(=O)Oc1ccccc1
inactive: dose: 100.0 mg/kg/injection, schedule: Q04DX003 (ip), vehicle: saline with Tween-80 100 % of control | dose: 200.0 mg/kg/injection, schedule: Q04DX003 (ip), vehicle: saline with Tween-80 104 % of control | dose: 400.0 mg/kg/injection, schedule: Q04DX003 (ip), vehicle: saline with Tween-80 100 % of control

O=C1OCCN1CCCl
inactive: [14] 118 % of control | dose: 200.0 mg/kg/injection, schedule: Q01DX009 (ip), vehicle: Klucel (hydroxypropylcellulose) (HPC) 121 % of control | dose: 400.0 mg/kg/injection, schedule: Q01DX009 (ip), vehicle: Klucel (hydroxypropylcellulose) (HPC) 121 % of control

COC(=O)C/C(C(=O)OC)=C1\CCC2=C1N1CCCC1C2(CC(=O)OC)C(=O)OC (stereo unspecified)
inactive: dose: 12.5 mg/kg/injection, schedule: Q01DX001 (ip), vehicle: Klucel (hydroxypropylcellulose) (HPC) 100 % of control | dose: 25.0 mg/kg/injection, schedule: Q01DX001 (ip), vehicle: Klucel (hydroxypropylcellulose) (HPC) 99 % of control | dose: 50.0 mg/kg/injection, schedule: Q01DX001 (ip), vehicle: Klucel (hydroxypropylcellulose) (HPC) 99 % of control

O=C1c2ccccc2C(=O)C1c1ccc2c(ccc3ccccc32)n1
inactive: dose: 50.0 mg/kg/injection, schedule: Q01DX005 (ip), vehicle: Klucel (hydroxypropylcellulose) (HPC) 98 % of control | dose: 100.0 mg/kg/injection, schedule: Q01DX005 (ip), vehicle: Klucel (hydroxypropylcellulose) (HPC) 88 % of control | dose: 200.0 mg/kg/injection, schedule: Q01DX005 (ip), vehicle: Klucel (hydroxypropylcellulose) (HPC) 96 % of control

NC(=O)C(Cl)Cl
inactive: dose: 100.0 mg/kg/injection, schedule: Q04DX002 (ip), vehicle: saline 108 % of control | dose: 200.0 mg/kg/injection, schedule: Q04DX002 (ip), vehicle: saline 100 % of control | dose: 400.0 mg/kg/injection, schedule: Q04DX002 (ip), vehicle: saline 100 % of control

COC1/C=C/OC2(C)Oc3c(C)c(O)c4c(O)c(c(/C=N/N(C)C(C)C(O)c5ccccc5)c(O)c4c3C2=O)NC(=O)C(C)=C/C=C/C(C)C(O)C(C)C(O)C(C)C(OC(C)=O)C1C (stereo unspecified)
inactive: [15] 120 % of control | [13] 116 % of control | [4] 109 % of control and 116 % of control | [5] 111 % of control
